Test results as given in BigSolDB 2.1.

Conditions: in isopropanol

C=NCC#N
Conditions	solubility (mole fraction)
278.15 K	0.00069
283.15 K	0.000826
288.15 K	0.00106
293.15 K	0.00129
298.15 K	0.00153
303.15 K	0.00188
308.15 K	0.00229
313.15 K	0.00279
318.15 K	0.00338
323.15 K	0.00411
